Measurements as given in the supplement of paper PMC5579334.

What was measured:
HS-PSS [1] = experiment: relative IC50 (inflection point of fitted dose-response curve, CellTox-Green cytotoxicity, 72 h; top asymptote may be below 50%); higher = less potent
Summary of the method: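 MPNST cell lines and primary human Schwann cells were incubated 72 h at 37 °C in 384-well plates holding five 10-fold compound dilutions. CellTox-Green was added before seeding at a final 1:1000 dilution and reported fluorescence from DNA released by disrupted cells. Signals were scaled to vehicle and positive-control wells, and cultures failing plate quality control were dropped. Drug sensitivity score and relative IC50 come from four-parameter logistic fits, with IC50 censored at the top concentration.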

HS-PSS [2] = experiment: relative IC50 (inflection point of fitted dose-response curve, CellTiter-Glo viability, 72 h; top asymptote may be below 50% inhibition); higher = less potent
Summary of the method: (§1)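 Viability was scored by CellTiter-Glo ATP luminescence, scaled from vehicle to positive-control wells, with duplicates averaged where present. The cells, MPNST lines and primary human Schwann cells at 750–1000 per well, sat 72 h at 37 °C, 5% CO2, in 384-well plates preprinted with each compound at five concentrations in 10-fold steps. Four-parameter logistic fits were run on the data. These fits give drug sensitivity score and relative IC50 censored at the top concentration, and percent inhibition is reported at the top concentration.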

YST-1 = experiment: as above
Summary of the method: as §1

HS-Sch-2 = experiment: as above
Summary of the method: as §1

SMILES	relative IC50 (HS-PSS [1]) [nM]	relative IC50 (HS-PSS [2]) [nM]	relative IC50 (YST-1) [nM]	relative IC50 (HS-Sch-2) [nM]
Cc1cc(Nc2cc(N3CCN(C)CC3)nc(/C=C/c3ccccc3)n2)n[nH]1 [ENMD-2076]	2290	1060	361	763
CN(C[C@@H]1COCCO1)S(=O)(=O)Nc1ccc2ccc3ncc(-c4cnn(C)c4)cc3c(=O)c2c1 [MK-2461]	> 10000	4100	1680	3480
Nc1ncnc2c1c(-c1cccc(OCc3ccccc3)c1)cn2[C@H]1C[C@@H](CN2CCC2)C1 [NVP-AEW541]	2380	3020	654	1960
CCn1c(-c2nonc2N)nc2c(C#CC(C)(C)O)ncc(OC[C@H]3CCCNC3)c21	> 10000	> 10000	> 10000	1620
CCN(CC)CCCC(C)Nc1c2ccc(Cl)cc2nc2ccc(OC)cc12 (configuration not stated) [Mepacrine]	1580	1440	1790	1440
C[C@@H](Oc1ccc2[nH]nc(/C=C/c3cnn(CCO)c3)c2c1)c1c(Cl)cncc1Cl	245	187	114	118
CCNC(=O)C[C@@H]1N=C(c2ccc(Cl)cc2)c2cc(OC)ccc2-n2c(C)nnc21	> 10000	709	501	624
S=C(NCc1ccc2c(c1)OCO2)N1CCN(c2ncnc3c2oc2ccccc23)CC1 [Amuvatinib]	> 10000	1010	3540	2070
Cc1c(F)cc(C(=O)NC2CC2)cc1-c1ccc(C(=O)NCC(C)(C)C)cn1 [Losmapimod]	> 10000	> 10000	24.9	> 10000
Cc1sc2c(c1C)C(c1ccc(Cl)cc1)=N[C@@H](CC(=O)Nc1ccc(O)cc1)c1nnc(C)n1-2 [OTX015]	> 10000	321	162	223
CC(C)NC(=O)COc1cccc(-c2nc(Nc3ccc4[nH]ncc4c3)c3ccccc3n2)c1 [SLx-2119]	> 5000	1040	193	653
CCCCc1nc2cc(/C=C/C(=O)NO)ccc2n1CCN(CC)CC [Pracinostat]	1630	728	121	429
CN(C)Cc1ccc(S(=O)(=O)n2ccc(/C=C/C(=O)NO)c2)cc1 [Resminostat]	3060	2180	578	2170
Cc1sc2c(c1C)C(c1ccc(Cl)cc1)=N[C@@H](CC(=O)OC(C)(C)C)c1nnc(C)n1-2 [JQ1]	> 10000	379	280	331
O=C(O)CSc1cc(NS(=O)(=O)c2ccc(Br)cc2)c2ccccc2c1O [UMI-77]	30500	26900	3040	5660
O=c1cc(N2CCOCC2)oc2c(-c3ccccc3)cccc12	18300	13400	7660	13700
CC(C)Nc1cc(-c2c[nH]c(C(=O)N[C@H](CO)c3cccc(Cl)c3)c2)c(Cl)cn1 [Ulixertinib]	> 10000	3530	1380	1290
Cc1c(CN2CCN(C(=O)[C@H](C)O)CC2)sc2c(N3CCOCC3)nc(-c3cnc(N)nc3)nc12 [Apitolisib]	> 10000	715	167	732
COc1ccc(-c2nc(N3CCOCC3)c3sc(CN(C)c4ncc(C(=O)NO)cn4)cc3n2)cn1 [CUDC-907]	66.7	20.7	3.12	24.3
CCNC(=O)c1noc(-c2cc(C(C)C)c(O)cc2O)c1-c1ccc(CN2CCOCC2)cc1 [Luminespib]	51.8	39.3	10.3	11
CN(C)C1CCN(C(=O)c2ccc(NC(=O)Nc3ccc(-c4nc(N5CCOCC5)nc(N5CCOCC5)n4)cc3)cc2)CC1 [Gedatolisib]	> 1000	9.08	16.4	47.2
FC(F)(F)c1ccc(/C=C/c2nc(COc3ccc(CCCCn4ccnn4)cc3)co2)cc1 [Mubritinib]	> 1000	10.9	6.05	19.7
Nc1cc(F)ccc1NC(=O)/C=C/c1cnn(C/C=C/c2ccccc2)c1 [RGFP966]	> 10000	378	1570	1750
CC(=O)O[C@]1(C(C)=O)CC[C@H]2[C@@H]3C=C(C)C4=CC(=O)CC[C@]4(C)[C@H]3CC[C@@]21C [Megestrol acetate]	> 10000	> 10000	> 10000	> 10000
COc1ccc(-c2ccc3ncc4c(c3c2)n(-c2ccc(N3CCNCC3)c(C(F)(F)F)c2)c(=O)n4C)cn1 [NVP-BGT226]	335	40.4	17.9	12.5
Cn1cc(C2=Nc3cc(NC(=O)C(N)C4CCCCC4)cc4c3C2=CNNC4=O)cn1 (configuration not stated)	> 10000	77.1	163	108
O=C(/C=C\n1cnc(-c2cc(C(F)(F)F)cc(C(F)(F)F)c2)n1)NNc1cnccn1 [Selinexor]	1460	404	115	211

SMILES	relative IC50 (HS-PSS [1]) [nM]	relative IC50 (HS-PSS [2]) [nM]	relative IC50 (YST-1) [nM]	relative IC50 (HS-Sch-2) [nM]
CCN(CC)CCCC(C)Nc1ccnc2cc(Cl)ccc12 (configuration not stated) [Chloroquine]	8350	2730	14700	3750
CC[C@H](C)C(=O)O[C@H]1C[C@@H](C)C=C2C=C[C@H](C)[C@H](CC[C@@H]3C[C@@H](O)CC(=O)O3)[C@H]21 [Lovastatin]	> 10000	> 10000	> 10000	> 10000
COc1cc(Br)c(Nc2nc(-c3c(C)nc4ncccn34)cs2)c(Br)c1 [PTC-209]	> 10000	1670	2580	1410
c1ccc(Cn2c(-c3ccc(OC[C@H](C4CCNCC4)n4c(-c5ccccc5)nc5ccccc54)cc3)nc3ccccc32)cc1 [deltarasin]	2470	2470	3360	3060
NCC(=O)Nc1ccc(-n2nc(C(F)(F)F)cc2-c2ccc3c(ccc4ccccc43)c2)cc1	5040	9140	7970	6000
Cc1cc(Nc2cc(N3CCN(C)CC3)nc(Sc3ccc(NC(=O)C4CC4)cc3)n2)n[nH]1 [Tozasertib]	> 10000	315	42.1	552
N#Cc1ccc2[nH]c(O)c(-c3ccc(CN4CCOCC4)cn3)c2c1 [AZD-1080]	> 10000	2380	> 10000	3630
C[C@@H]1CN(CC(=O)Nc2ccc3c(c2)Cc2cccc(-c4cc(=O)cc(N5CCOCC5)o4)c2S3)C[C@H](C)O1	> 25000	10100	9260	4240
CCn1nnc2c(N3CCOCC3)nc(-c3ccc(NC(=O)Nc4ccc(C(=O)N5CCN(C)CC5)cc4)cc3)nc21 [PKI-402]		46.7	61.1	95.8
O=C(NC1CCNCC1)c1n[nH]cc1NC(=O)c1c(Cl)cccc1Cl [AT7519]		277	69.3	337
C=CC(=O)Nc1cc(Nc2nccc(-c3cn(C)c4ccccc34)n2)c(OC)cc1N(C)CCN(C)C [Osimertinib]		472	299	759
O=C(c1ccc(F)c(F)c1Nc1ccc(I)cc1F)N1CC(O)([C@@H]2CCCCN2)C1 [Cobimetinib]		159	> 1000	300
CN[C@@H](C)C(=O)N[C@H](C(=O)N1CCC[C@H]1c1nc(C(=O)c2ccc(F)cc2)cs1)C1CCCCC1 [LCL161]		3860	4260	7520
CO[C@H]1C(=O)[C@]2(C)[C@@H](OC)C[C@H]3OC[C@@]3(OC(C)=O)[C@H]2[C@H](OC(=O)c2ccccc2)[C@]2(O)C[C@H](OC(=O)[C@H](O)[C@@H](NC(=O)OC(C)(C)C)c3ccccc3)C(C)=C1C2(C)C [Cabazitaxel]		418	0.74	0.94
CN(c1ncccc1CNc1nc(Nc2ccc3c(c2)CC(=O)N3)ncc1C(F)(F)F)S(C)(=O)=O		3340	2010	3410
COc1cccc(OCCCN)c1-c1cc(Nc2cnc(C#N)cn2)n[nH]1 [Prexasertib]		1770	54.7	26
CNC(=O)c1nn(C)c2c1C(C)(C)Cc1cnc(Nc3ccc(N4CCN(C)CC4)cc3)nc1-2 [Milciclib]		779	351	1240
CNC(=O)c1ccccc1Nc1cc(Nc2ccc(N3CCOCC3)cc2OC)ncc1C(F)(F)F [VS-4718]		3690	724	2610
O=C1c2ccccc2-c2n[nH]c3cccc1c23		13300	20100	13900
Cc1cc2c(C(=O)NC[C@H](C)c3ccccc3)c(O)c(O)cc2c(O)c1-c1c(C)cc2c(C(=O)NC[C@H](C)c3ccccc3)c(O)c(O)cc2c1O [Sabutoclax]		8740	618	523
CC(C)NC[C@@H](C(=O)N1CCN(c2ncnc3c2[C@H](C)C[C@H]3O)CC1)c1ccc(Cl)cc1 [Ipatasertib]		1160	879	1080
O=C(/C=C\n1cnc(-c2cc(C(F)(F)F)cc(C(F)(F)F)c2)n1)NNc1ccccn1 [Verdinexor]		137	144	137
Cc1ncc(-c2ccnc(Nc3ccc(S(C)(=O)=O)cc3)n2)n1C(C)C [AZD-5438]		367	1450	1900
COc1cc(NS(C)(=O)=O)ccc1Nc1c2ccccc2nc2ccccc12 [Amsacrine]		1250	252	634
O=C(CCCCCCNC(=O)c1cnc(N(c2ccccc2)c2ccccc2)nc1)NO [Rocilinostat]		2760	1240	1930
CC(=O)NCC(=O)N1[C@@H]2CC[C@H]1c1ccc(Nc3ncc(C(F)(F)F)c(NC4CCC4)n3)cc12		960	749	946
CC(=O)c1cnc2ccc(-c3cc(Cl)c(O)c(Cl)c3)nc2c1N[C@H]1CC[C@H](CN(C)C)CC1 [OTSSP167]		339	10.8	26.1
